Measured values from patent publication US20080021026A1, “BENZOTHIOPHENE INHIBITORS OF RHO KINASE” (priority 2006, published 2008).

Assays:
[1] = target: T1, recombinant N-terminal GST-tagged human Rho kinase 2 (ROCK2, amino acids 1-552) (Homo sapiens, UniProt O75116); assay: In vitro Rho kinase assay (luciferase-based ATP consumption), ROCK2; assay type: biochemical; settings: recombinant GST-tagged human ROCK2, luciferase-based ATP consumption; read-out: ROCK2 IC50
T1 construct: ROCK2, amino acids 1-552; purchased Invitrogen Inc. PV3759
T1 sequence (O75116 1-552): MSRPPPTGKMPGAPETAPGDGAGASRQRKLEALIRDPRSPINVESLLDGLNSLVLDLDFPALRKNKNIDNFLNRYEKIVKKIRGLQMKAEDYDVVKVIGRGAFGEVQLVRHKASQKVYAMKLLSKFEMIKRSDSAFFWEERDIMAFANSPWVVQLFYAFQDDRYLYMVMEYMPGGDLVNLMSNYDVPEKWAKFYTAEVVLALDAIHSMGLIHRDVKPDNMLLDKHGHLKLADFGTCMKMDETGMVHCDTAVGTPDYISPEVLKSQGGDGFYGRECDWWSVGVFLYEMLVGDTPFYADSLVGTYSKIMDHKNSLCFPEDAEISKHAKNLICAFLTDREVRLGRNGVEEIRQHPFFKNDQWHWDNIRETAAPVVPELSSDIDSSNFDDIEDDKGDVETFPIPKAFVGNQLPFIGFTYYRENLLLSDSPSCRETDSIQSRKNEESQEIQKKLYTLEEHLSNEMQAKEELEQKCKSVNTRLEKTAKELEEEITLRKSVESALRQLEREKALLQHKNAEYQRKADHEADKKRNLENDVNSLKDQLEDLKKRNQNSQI
Method in brief: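 GST-ROCK2 (aa 1-552, 0.82 μg/ml) with 100 μg/ml S6 peptide and 3 µM ATP in Tris pH 7.5 buffer with MgCl2/CaCl2/EGTA/BSA, compound added just after reaction start, 2 h at 30 °C. Remaining ATP read by luciferase luminescence. Efficacy expressed as percentage of H-1152P positive control.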

[2] = target: T2, recombinant N-terminal GST-tagged human Rho kinase 1 (ROCK1, amino acids 1-535) (Homo sapiens, UniProt Q13464); assay: In vitro Rho kinase assay (luciferase-based ATP consumption), ROCK1; assay type: biochemical; settings: recombinant GST-tagged human ROCK1, luciferase-based ATP consumption; read-out: ROCK1 IC50
T2 construct: ROCK1, amino acids 1-535; purchased Invitrogen Inc. PV-3691
T2 sequence (Q13464 1-535): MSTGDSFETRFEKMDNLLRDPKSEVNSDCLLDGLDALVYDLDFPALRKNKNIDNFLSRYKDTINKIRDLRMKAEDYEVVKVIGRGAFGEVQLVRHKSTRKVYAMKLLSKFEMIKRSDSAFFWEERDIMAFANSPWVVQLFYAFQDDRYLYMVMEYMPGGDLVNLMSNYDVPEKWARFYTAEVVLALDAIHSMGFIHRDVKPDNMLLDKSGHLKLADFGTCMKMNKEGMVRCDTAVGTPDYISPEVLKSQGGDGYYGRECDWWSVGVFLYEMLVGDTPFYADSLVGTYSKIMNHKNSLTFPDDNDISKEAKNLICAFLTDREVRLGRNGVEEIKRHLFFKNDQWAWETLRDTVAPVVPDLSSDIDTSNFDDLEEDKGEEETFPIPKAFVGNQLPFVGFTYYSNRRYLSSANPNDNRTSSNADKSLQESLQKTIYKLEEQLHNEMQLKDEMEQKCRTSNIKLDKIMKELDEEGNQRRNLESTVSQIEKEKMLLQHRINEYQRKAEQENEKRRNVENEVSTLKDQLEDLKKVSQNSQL
Description: In Vitro Rho Kinase Assay
Rho kinase biochemical assays described below depend on firefly luciferase-based, indirect measurement of total ATP consumption by the kinase following incubation with substrate and ATP. 25 μl of Rho kinase assay buffer (20 mM Tris-HCL [pH 7.5], 1 mM MgCl2, 0.4 mM CaCl2, 0.15 mM EGTA, 0.1 mg/ml bovine serum albumin) containing 0.82 μg/ml of recombinant N-terminal GST-tagged human Rho kinase 1 (ROCK1, amino acids 1-535, Invitrogen Inc., cat. #PV-3691) or recombinant N-terminal GST-tagged human Rho kinase 2 (ROCK2, amino acids 1-552, Invitrogen Inc., cat #PV3759), 100 μg/ml S6 peptide substrate (related to amino acids 218-249 of the human 40S ribosomal protein S6, and suitable for ROCK1 or ROCK2, e.g. Upstate/Millipore Inc., cat #12-420), and 3 µM ATP are dispensed to wells of a 384 multi-well opaque plate. The plate is centrifuged for 30 seconds at approximately 200×g. 240 nl of test compound in DMSO is dispensed to each well by passive pin transfer. The lag phase of this in vitro kinase reaction permits addition of compounds soon after the reaction initiates. The reaction is allowed to incubate at 30° C. for 2 hours. The assay plates are sealed and maintained in a humidified environment. After 2 hours, 25 μl of easylite protein kinase assay reagent (Perkin-Elmer, Inc.) is dispensed. After an additional 10 minute incubation at room temperature (about 22° C.), luminescence activity is measured on a Molecular Devices Analyst multi-mode plate reader or other suitable plate reader. Kinase inhibition results in less ATP consumption, and therefore increased luminescence signal. Negative control activity is measured with DMSO lacking any test compound. The positive control is 2-methyl-1-(4-methylisoquinolin-5-ylsulfonyl)perhydro-1,4-diazepine hydrochloride (aka H-1152P, HCl salt). Efficacy is measured as a percentage of positive control activity. […] The designation NT means the cited example was not tested.

| SMILES | IC50 [1] | IC50 [2] |
| --- | --- | --- |
| Cc1c(-c2ccnc(N)n2)sc2ccc(Cc3cccc(C(=O)NCCN4CCOCC4)c3)cc12 [Example 48, 3-((2-(2-Aminopyrimidin-4-yl)-3-methylbenzo[b]thiophen-5-yl)methyl)-N-(3-morpholinoethyl)benzamide] | < 5 µM | < 5 µM |
| Cc1c(-c2ccnc(N)n2)sc2ccc(Nc3cccc(Oc4ccccc4)c3)cc12 [Example 53, 4-(3-Methyl-5-(3-phenoxyphenylamino)benzo[b]thiophen-2-yl)pyrimidin-2-amine] | < 5 µM | < 5 µM |
| Cc1c(-c2ccnc(N)n2)sc2ccc(Nc3cccc(OC(F)(F)F)c3)cc12 [Example 54, 4-(3-Methyl-5-(3-(trifluoromethoxy)phenylamino)benzo[b]thiophen-2-yl)pyrimidin-2-amine] | > 5 µM | > 5 µM |
| Cc1c(-c2ccnc(N)n2)sc2ccc(Nc3cccc(NS(C)(=O)=O)c3)cc12 [Example 56, N-(3-(2-(2-Aminopyrimidin-4-yl)-3-methylbenzo[b]thiophen-5-ylamino)phenyl)methanesulfonamide] | < 5 µM | < 5 µM |
| CC(=O)Nc1cccc(Nc2ccc3sc(-c4ccnc(N)n4)c(C)c3c2)c1 [Example 58, N-(3-(2-(2-Aminopyrimidin-4-yl)-3-methylbenzo[b]thiophen-5-ylamino)phenyl)acetamide] | < 5 µM | < 5 µM |
| CC(=O)Oc1ccc(C(=O)Nc2cccc(Nc3ccc4sc(-c5ccnc(N)n5)c(C)c4c3)c2)cc1 [Example 60, 4-(3-(2-(2-Aminopyrimidin-4-yl)-3-methylbenzo[b]thiophen-5-ylamino)phenylcarbamoyl)phenyl acetate] | < 5 µM | < 5 µM |
| COC(=O)c1ccc(C(=O)Nc2cccc(Nc3ccc4sc(-c5ccnc(N)n5)c(C)c4c3)c2)cc1 [Example 62, Methyl 4-(3-(2-(2-aminopyrimidin-4-yl)-3-methylbenzo[b]thiophen-5-ylamino)phenylcarbamoyl)benzoate] | < 5 µM | < 5 µM |
| Cc1c(-c2ccnc(N)n2)sc2ccc(Nc3cccc(NC(=O)c4ccc(C(=O)O)cc4)c3)cc12 [Example 63, 4-(3-(2-(2-Aminopyrimidin-4-yl)-3-methylbenzo[b]thiophen-5-ylamino)phenylcarbamoyl)benzoic acid] | < 5 µM | < 5 µM |

Now from value to compound:

| IC50 [1] | IC50 [2] | SMILES |
| --- | --- | --- |
| < 5 µM | < 5 µM | Cc1c(-c2ccnc(N)n2)sc2ccc(Cc3cccc(C(=O)NCCCN4CCOCC4)c3)cc12 [Example 49, 3-((2-(2-Aminopyrimidin-4-yl)-3-methylbenzo[b]thiophen-5-yl)methyl)-N-(3-morpholinopropyl)benzamide] |
| < 5 µM | < 5 µM | Cc1c(-c2ccnc(N)n2)sc2ccc(Cc3cccc(C(=O)N4CCN(C)CC4)c3)cc12 [Example 50, (3-((2-(2-Aminopyrimidin-4-yl)-3-methylbenzo[b]thiophen-5-yl)methyl)phenyl)(4-methylpiperazin-1-yl)methanone] |
| < 5 µM | < 5 µM | Cc1c(-c2ccnc(N)n2)sc2ccc(Nc3cccc(OCc4ccccc4)c3)cc12 [Example 55, 4-(5-(3-(Benzyloxy)phenylamino)-3-methylbenzo[b]thiophen-2-yl)pyrimidin-2-amine] |
| < 5 µM | < 5 µM | Cc1c(-c2ccnc(N)n2)sc2ccc(Nc3cccc(N)c3)cc12 [Example 57, N^1-(2-(2-Aminopyrimidin-4-yl)-3-methylbenzo[b]thiophen-5-yl)benzene-1,3-diamine] |
| < 5 µM | < 5 µM | Cc1c(-c2ccnc(N)n2)sc2ccc(Nc3cccc(NC(=O)c4ccc(OCCN5CCOCC5)cc4)c3)cc12 [Example 59, N-(3-(2-(2-Aminopyrimidin-4-yl)-3-methylbenzo[b]thiophen-5-ylamino)phenyl)-4-(2-morpholinoethoxy)benzamide] |
| < 5 µM | < 5 µM | Cc1c(-c2ccnc(N)n2)sc2ccc(Nc3cccc(NC(=O)c4ccc(O)cc4)c3)cc12 [Example 61, N-(3-(2-(2-Aminopyrimidin-4-yl)-3-methylbenzo[b]thiophen-5-ylamino)phenyl)-4-hydroxybenzamide] |
